Results published in patent US20130028920A1, “STABILIZED ANTIBODY PREPARATIONS AND USES THEREOF” (UNIVERSITE DE GENEVE, priority 2010, published 2013).
Entries after “also recorded” stand apart in the source; their conditions may differ.

Key:
Format in all cases: physicochemical
Avastin® [1] = test: Stability of pre-stressed Avastin® with ATP, GMP or sucrose phosphate, by AFFF-MALS; conditions: for stabilization of Avastin® across molar ratios: Avastin®:compound 1:1, 1:10 and 1:100, pre-stressed, PBS pH 7.0, 40° C., up to 28 days; for Short-term effects on the antibody, compared among ATP, GMP and sucrose phosphate: short term after addition
Description: All samples were stored at 40° C. during 28 days. […] The aggregation state of the antibodies was measured by multi-angle light scattering (MALS) after separation by asymmetrical flow field-flow fractionation (AFFF). […] Data were collected and analysed with the Astra software (Wyatt Technology Europe GmbH, Dernbach, Germany). The aggregation state was expressed as the percentage of monomers versus time.
After pre-stressing, Avastin® samples were combined with either ATP, GMP or sucrose phosphate at three Avastin®: compound of formula (I) molar ratios (1:1, 1:10 and 1:100). All samples are stored at a temperature of 40° C. for 28 days and stability is measured as described in Example 3 and compared to a sample of Avastin® alone stored under the same conditions. For GMP, a dilution of GMP was made in PBS pH 7.0 and pH was adjusted to 7.0 before the combination with Avastin® to prevent the risk of higher order aggregates caused by the addition of NaOH directly to the antibody formulation.

Avastin® [2] = test: Effect of AMP on the unmodified commercial bevacizumab formulation (Avastin®), stability by AFFF-MALS; conditions: 40° C., 28 days, p<0.05
Description: (§1) All samples were stored at 40° C. during 28 days. Samples were analyzed directly after preparation (t0) and after 7, 14 and 28 days. The aggregation state of the antibodies was measured by multi-angle light scattering (MALS) after separation by asymmetrical flow field-flow fractionation (AFFF). […] Data were collected and analysed with the Astra software (Wyatt Technology Europe GmbH, Dernbach, Germany). The aggregation state was expressed as the percentage of monomers versus time.
All samples are stored at a temperature of 40° C. for 28 days and the stability is measured as described in Example 3 and compared to a sample of Avastin® alone stored under the same conditions.

bevacizumab = test: Stability of dialyzed, pre-stressed bevacizumab alone and with AMP, percentage of monomers by AFFF-MALS
Description: as §1, with “A 50 mM phosphate buffer pH 7.0 was used. The buffer choice was based on a pH range and buffer capacity that is physiologically tolerated and that is acceptable for the stability of antibodies. […]” for “All samples were stored at 40° C. during 28 days.”

[3] = molar ratio 1:1, t1 (1 day at 40° C.)
[4] = molar ratio 1:10, t1 (1 day at 40° C.)
[5] = molar ratio 1:100, t1 (1 day at 40° C.)

stabilizing effect versus Avastin® alone (Avastin® [1]; [3]) | stabilizing effect versus Avastin® alone (Avastin® [1]; [4]) | stabilizing properties, compared among ATP, GMP and sucrose phosphate (Avastin® [1]; after 28 days of storage at 40° C.) | percentage of monomers (bevacizumab; formulations of bevacizumab with AMP (1:153 by context), 14 days at 40° C., pH 7.0, n=3) | percentage of monomers (bevacizumab; molar ratio bevacizumab:AMP 1:1.53, 14 days at 40° C., pH 7.0) | percentage of monomers (bevacizumab; molar ratio bevacizumab:AMP 1:1.53, 28 days at 40° C., pH 7.0, n=3) | percentage of monomers (bevacizumab; molar ratio bevacizumab:AMP 1:15.3, 14 days at 40° C., pH 7.0) | percentage of monomers (bevacizumab; molar ratio bevacizumab:AMP 1:15.3, 28 days at 40° C., pH 7.0, n=3) | percentage of monomers (bevacizumab; molar ratio bevacizumab:AMP 1:153, 28 days at 40° C., pH 7, n=3) | Compound | stabilization of Avastin® across molar ratios (Avastin® [1]) | stabilizing effect versus Avastin® alone (Avastin® [1]; [5]) | Short-term effects on the antibody, compared among ATP, GMP and sucrose phosphate (Avastin® [1]) | aggregation breaker strength in experiments (Avastin® [1]; compared with AMP) | stabilizing effect versus Avastin® alone (Avastin® [1]; molar ratio 1:100, t28 (28 days at 40° C.)) | stabilization of the antibody (increase in monomers) versus Avastin® alone (Avastin® [2]; Avastin®:AMP 1:10) | stabilization of the antibody (increase in monomers) versus Avastin® alone (Avastin® [2]; Avastin®:AMP 1:100)
stabilizing effect is observed | stabilizing effect is observed |  |  |  |  |  |  |  | sucrose phosphate | concentration-dependent stabilization; also recorded: concentration-dependent stabilizing effect continues up to 28 days | stabilizing effect is observed | most pronounced |  |  |  | 
destabilizing | destabilizing | most distinct stabilizing properties |  |  |  |  |  |  | Nc1nc2c(ncn2[C@@H]2O[C@H](COP(=O)(O)O)[C@@H](O)[C@H]2O)c(=O)[nH]1 [GMP, guanosine 5′-monophosphate] | concentration dependent stabilization | shows an ability to stabilize the antibody |  |  |  |  | 
 |  |  | higher than 94% | higher than 80% | higher than 76% | higher than 80% | higher than 76% | around 90% | Nc1ncnc2c1ncn2[C@@H]1O[C@H](COP(=O)(O)O)[C@@H](O)[C@H]1O [AMP, adenosine 5′-monophosphate] |  |  |  |  |  | significant stabilization is observed at t1, t14 and t28 | such a stabilization is observed only at longer incubation times (t14 and t28)

Compound | stabilizing effect versus Avastin® alone (Avastin® [1]; [3]) | stabilizing effect versus Avastin® alone (Avastin® [1]; [4]) | stabilizing properties, compared among ATP, GMP and sucrose phosphate (Avastin® [1]; after 28 days of storage at 40° C.) | percentage of monomers (bevacizumab; formulations of bevacizumab with AMP (1:153 by context), 14 days at 40° C., pH 7.0, n=3) | percentage of monomers (bevacizumab; molar ratio bevacizumab:AMP 1:1.53, 14 days at 40° C., pH 7.0) | percentage of monomers (bevacizumab; molar ratio bevacizumab:AMP 1:1.53, 28 days at 40° C., pH 7.0, n=3) | percentage of monomers (bevacizumab; molar ratio bevacizumab:AMP 1:15.3, 14 days at 40° C., pH 7.0) | percentage of monomers (bevacizumab; molar ratio bevacizumab:AMP 1:15.3, 28 days at 40° C., pH 7.0, n=3) | percentage of monomers (bevacizumab; molar ratio bevacizumab:AMP 1:153, 28 days at 40° C., pH 7, n=3) | stabilization of Avastin® across molar ratios (Avastin® [1]) | stabilizing effect versus Avastin® alone (Avastin® [1]; [5]) | Short-term effects on the antibody, compared among ATP, GMP and sucrose phosphate (Avastin® [1]) | aggregation breaker strength in experiments (Avastin® [1]; compared with AMP) | stabilizing effect versus Avastin® alone (Avastin® [1]; molar ratio 1:100, t28 (28 days at 40° C.)) | stabilization of the antibody (increase in monomers) versus Avastin® alone (Avastin® [2]; Avastin®:AMP 1:10) | stabilization of the antibody (increase in monomers) versus Avastin® alone (Avastin® [2]; Avastin®:AMP 1:100)
Nc1ncnc2c1ncn2[C@@H]1O[C@H](COP(=O)(O)OP(=O)(O)OP(=O)(O)O)[C@@H](O)[C@H]1O [ATP, adenosine 5′-triphosphate] | stabilizing effect is observed | stabilizing effect is observed |  |  |  |  |  |  |  | concentration dependent stabilization | stabilizing effect is observed | most pronounced | less strong breaker than AMP | significant stabilizing effect |  | 
